“Also recorded” adds a separate entry of the source.
How the values were obtained:
spinal cord tissue = assay: Spinal cord injury (clip compression): histology and Luxol fast blue; format: in vivo, mouse; conditions: 24 h after SCI; for histological alterations of the spinal cord tissue (H&E, histological score): 17β-estradiol 300 μg/kg sc 1 h before, 3 h and 6 h after SCI, ICI 182,780: 500 μg/kg sc 1 h before 17β-estradiol; for myelin structure (Luxol fast blue): ICI 182,780: co-administered with 17β-estradiol
Description: Mice were anaesthetized using chloral hydrate (400 mg/kg body weight) (Genovese 2006). A longitudinal incision was made on the midline of the back, exposing the paravertebral muscles. These muscles were dissected away exposing T5-T8 vertebrae. The spinal cord was exposed via a four-level T6-T7 laminectomy and SCI was produced by extradural compression using an aneurysm clip with a closing force of 24 g. Following surgery, 1 ml of saline was administered subcutaneously in order to replace the blood volume lost during surgery. During the surgery and recovery from anesthesia, the mice were placed on a warm heating pad and covered with a warm towel. […] Food and water were provided to the mice ad libitum. During this time period, the animals' bladders were manually voided twice a day until the mice were able to regain normal bladder function. In all injured groups, the spinal cord was compressed for 1 min. Sham-injured animals were only subjected to laminectomy. […] In the experiments regarding the motor score, the animals from all the experimental groups were observed and treated daily for 9 days after SCI. At different time points (see FIG. 30), the mice (n=10 from each group for each of the 3 time points) were sacrificed in order to evaluate the various parameters as described below. Spinal cord biopsies were taken at 24 hours following trauma. Tissue segments containing the lesion (1 cm on each side of the lesion) were paraffin embedded and cut into 5-μm-thick sections. Tissue sections were deparaffinized with xylene, stained with Haematoxylin/Eosin (H&E) and Luxol Fast Blue staining (used to assess demyelination) and studied using light microscopy (Dialux 22 Leitz). The segments of each spinal cord were evaluated by an experienced histopathologist (RO). Damaged neurons were counted and the histopathologic changes of the gray matter were scored on a 6-point […] 2000): 0, no lesion observed, 1, gray matter contained 1 to 5 eosinophilic neurons; 2, gray matter contained 5 to 10 eosinophilic neurons; 3, gray matter contained more than 10 eosinophilic neurons; 4, small infarction (less than one third of the gray matter area); 5, moderate infarction; (one third to one half of the gray matter area); 6, large infarction (more than half of the gray matter area). The scores from all the sections from each spinal cord were averaged to give a final score for an individual mice. All the histological studies were performed in a blinded fashion.

myeloperoxidase (MPO) = assay: Spinal cord injury: neutrophil infiltration, MPO activity and MPO staining; format: in vivo, mouse; conditions: 24 h after SCI; ICI 182,780: co-administered with 17β-estradiol
Description: Mice were anaesthetized using chloral hydrate (400 mg/kg body weight) (Genovese 2006). A longitudinal incision was made on the midline of the back, exposing the paravertebral muscles. These muscles were dissected away exposing T5-T8 vertebrae. The spinal cord was exposed via a four-level T6-T7 laminectomy and SCI was produced by extradural compression using an aneurysm clip with a closing force of 24 g. Following surgery, 1 ml of saline was administered subcutaneously in order to replace the blood volume lost during surgery. During the surgery and recovery from anesthesia, the mice were placed on a warm heating pad and covered with a warm towel. […] Food and water were provided to the mice ad libitum. During this time period, the animals' bladders were manually voided twice a day until the mice were able to regain normal bladder function. In all injured groups, the spinal cord was compressed for 1 min. Sham-injured animals were only subjected to laminectomy. […] In the experiments regarding the motor score, the animals from all the experimental groups were observed and treated daily for 9 days after SCI. At different time points (see FIG. 30), the mice (n=10 from each group for each of the 3 time points) were sacrificed in order to evaluate the various parameters as described below. […] After deparaffinization, endogenous peroxidase was quenched with 0.3% (v/v) hydrogen peroxide in 60% (v/v) methanol for 30 min. […] Non-specific adsorption was minimized by incubating the section in 2% (v/v) normal goat serum in PBS for 20 min. Endogenous biotin or avidin binding sites were blocked by sequential incubation for 15 min with biotin and avidin (DBA), respectively. […] Sections were washed with PBS, and incubated with secondary antibody. Specific labeling was detected with a biotin-conjugated goat anti-rabbit IgG and avidin-biotin peroxidase complex (DBA) and counterstained with nuclear fast red. To verify the binding specificity for nitrotyrosine, iNOS, COX-2, Bax, and Bcl-2, some sections were also incubated with only the primary antibody (no secondary) or with only the secondary antibody (no primary). […] Immunocytochemistry photographs (n=5) were assessed by densitometry as previously described (Shea 1994) by using Imaging Densitometer (AxioVision, Zeiss, Milan, Italy) and a computer program. Myeloperoxidase (MPO) activity, an indicator of PMN accumulation, was determined as previously described (Mullane 1985) 24 h after SCI. […] The rate of change in absorbance was measured spectrophotometrically at 650 nm. MPO activity was defined as the quantity of enzyme degrading 1 μmol of peroxide per minute at 37° C. and was expressed in milliunits/g of wet tissue.

| SMILES | histological alterations of the spinal cord tissue (H&E, histological score) (spinal cord tissue) | myelin structure (Luxol fast blue) (spinal cord tissue) | MPO activity in spinal cord (myeloperoxidase (MPO)) | staining for MPO (myeloperoxidase (MPO)) |
| --- | --- | --- | --- | --- |
| C[C@]12CC[C@@H]3c4ccc(O)cc4CC[C@H]3[C@@H]1CC[C@@H]2O [17β-estradiol] | significant protection against the SCI-induced histological alteration; also recorded: significant protection from the SCI was observed | myelin degradation was attenuated | significantly attenuated; also recorded: significantly reduced the SCI-induced increase in MPO activity | visibly and significantly reduced |
| C[C@]12CC[C@@H]3c4ccc(O)cc4C[C@@H](CCCCCCCCC[S+]([O-])CCCC(F)(F)C(F)(F)F)[C@H]3[C@@H]1CC[C@@H]2O (some centres unmarked) [ICI 182,780] | significantly blocked the effect of the 17β-estradiol | significantly blocked the effect of the 17β-estradiol | significantly blocked the effect of the 17β-estradiol | significantly blocked the effect of the 17β-estradiol |

Source: patent US9359451B2, “Methods and compositions for treating trauma-hemorrhage using estrogen and derivatives thereof” (THE UAB RESEARCH FOUNDATION, priority 2012, dated 2016)
